Paper PMC11325505, “Nitrogen-Containing Flavonoids—Preparation and Biological Activity” (ACS Omega, 2024)
In brackets after ≈: the same amount, converted by molar mass. Several values for one entry are separate records, joined by “and”; a condition that tells them apart may be missing. Identical values can stand only once. Like-named read-outs stand apart in the source and are kept apart here.

Experiments:
MRSA 3596 = test: Mode of antimicrobial action with erythromycin or gentamicin, ermA- and aadD-positive strain; format: cell-based, S. aureus; conditions: for MIC, Gentamicin [1 mg/L] yes / MIC: MRSA 3596 (aadD); for MIC, Gentamicin [1 mg/L] yes: with gentamicin 1 mg/L; for MIC, erythromycin [1 mg/L] yes / MIC, erythromycin [1 mg/L] no: MRSA 3596 (ermA); for MIC, erythromycin [1 mg/L] yes: with erythromycin 1 mg/L; for MIC, erythromycin [1 mg/L] no: without erythromycin, Table 4; for MIC: Staphylococcus aureus, 24 h, read-out: MIC, Gentamicin [1 mg/L] no, without gentamicin, Table S6
Text: Erythromycin is a macrolide antibiotic that inhibits proteosynthesis by binding to the 50S subunit of the ribosome. In Staphylococcus species, resistance to erythromycin is associated with the presence of methyltransferases (encoded by erm genes) that alter the ribosomal target site. Another typical mechanism of resistance to erythromycin is the presence of an ATP-dependent efflux pump encoded by the msr(A) gene or a major facilitator superfamily (MFS) pump encoded by the lmrS gene. Both efflux pumps reduce the concentration of erythromycin in the cell below the therapeutic dose by transporting it across the membrane to the extracellular space. Another erythromycin resistance gene is the mph(C) gene, the product of which is a phosphotransferase that alters the structure of macrolide antibiotics. To elucidate the mechanism of erythromycin resistance modulation in S. aureus, further tests were performed with the strains MRSA 331 and MRSA 3596, which inactivate erythromycin via a single mechanism (ermC and ermA, respectively). […] Therefore, if the activity was not strain-specific, it would be necessary to consider the effect of the derivatives on this pump (Table 3).
Among the mechanisms of resistance to gentamicin previously described in S. aureus, the presence of enzymes that alter the structure of aminoglycosides is crucial. These enzymes can transfer nucleotides, phosphates, or acetyls to various −OH or −NH2 groups of gentamicin, preventing its subsequent interaction with the cellular target, i.e., the 30S ribosomal subunit. The bifunctional aminoglycoside-modifying enzyme with acetylation and phosphotransferase activities encoded by the gene aac(6’)/aph(2’), 4′,4″ adenyltransferase encoded by the aadD gene, and aminoglycoside O-phosphotransferase encoded by the gene aph(3′) are the most important.[37] […] For this reason, further testing continued using strains MRSA 3596 and MRSA 1584, which inactivate gentamicin only by a single mechanism (aadD and aac(6’)-aph(2’’), respectively).
(§1) Sensitization of multidrug-resistant clinical bacterial strains was performed according to ref[15]. Antibiotic cutoff concentration was chosen according to the European Committee on Antimicrobial Susceptibility Testing (EUCAST, Clinical breakpoints–bacteria, ver. 11.0). The 200 μM concentration of the derivatives was chosen as the highest test concentration. The absorbance detected at 600 nm was then used to estimate the number of viable cells after 24 h of incubation at 37 °C and 120 rpm.
(§2) Experiments were performed with the respective number of replicates indicated in each figure/table. MIC was determined as IC70. Both IC70 and IC50 values were calculated using the following nonlinear regression in the software GraphPad Prism: […]

[1] = tested on: Staphylococcus aureus MRSA 9; test: Modulation of antibiotic-resistant phenotype (flavonoid plus breakpoint concentration of antibiotic); format: cell-based; conditions: MIC determined as IC70, three repetitions ± SEM; for minimum inhibitory concentration (MIC) in the presence of erythromycin: erythromycin at breakpoint concentration 1 mg/L; for minimum inhibitory concentration (MIC) in the presence of gentamicin: gentamicin at breakpoint concentration 1 mg/L
Protocol: To evaluate the ability to modulate bacterial resistance, the tested flavonoids themselves cannot exert antimicrobial activity; therefore, the nontoxic concentration was used, as indicated in Table S5. Clinically relevant antibiotics were selected at breakpoint concentrations for susceptibility testing according to the European Committee on Antimicrobial Susceptibility Testing (EUCAST, version 11.0). […] Flavonoids and their derivatives (from 1 μM to the highest nontoxic concentration) were used in combination with the breakpoint concentration of the antibiotics. After coincubation, the minimum inhibitory concentration (MIC) of flavonoids inhibiting the visible growth of bacteria was determined (Table 2).
as §1, §2

[2] = tested on: immortalized human keratinocytes (HaCaT); test: Cytotoxicity (resazurin assay), keratinocytes; format: cell-based; conditions: Homo sapiens, HaCaT, 72 h, read-out: HaCaT IC50 (concentration that halved the viability)
Protocol: (§3) The cytotoxicity of the prepared derivatives was evaluated by their ability to decrease the viability of immortalized human keratinocytes (HaCaT) and human dermal fibroblasts (HDF).
(§4) 100 μL of cell suspension containing 10^5 cells/mL was pipetted into a 96-well plate. After 24 h incubation, the tested compounds were added in the concentration range 12.5–200 μM. After 72 h incubation, the cell viability was tested by standard resazurin assay.[41] Briefly, the cells were washed with PBS and incubated with 100 μL of resazurin solution (0.025 mg/mL) for 2 h. The fluorescence was measured at a wavelength of 560 nm excitation/590 nm emission.

[3] = tested on: human dermal fibroblasts (HDF); test: Cytotoxicity (resazurin assay), fibroblasts; format: cell-based; conditions: Homo sapiens, Fibroblast, 72 h, read-out: HDF IC50 (concentration that halved the viability)
Protocol: as §3, §4

[4] = tested on: interleukin 6 (IL-6) production by RAW 264.7 stimulated by LPS; test: Anti-inflammatory activity: IL-6 production by LPS-stimulated macrophages; format: cell-based, Murine; conditions: for IC50: Mus musculus, RAW264.7, LPS-stimulated RAW 264.7, average of four repetitions ± SEM
Protocol: The anti-inflammatory activity of flavonoids was evaluated as their ability to decrease the production of signaling molecules that mediate inflammation, such as nitric oxide (NO), tumor necrosis factor (TNF-α), and interleukin 6 (IL-6), in LPS-stimulated macrophages.
The anti-inflammatory activity of the tested flavonoids was determined as the ability to reduce the production of nitric oxide (NO), tumor necrosis factor (TNF-α), and interleukin 6 (IL-6) by RAW 264.7 stimulated by LPS, as previously described.[39],[40] Briefly, 1 × 10^6 cells/mL was seeded into the 96-well plate (100 μL/well). After 48 h, LPS (100 ng/mL) and the samples (3–100 μM) were added to the MEM medium. After 24 h, the medium was mixed with Griess reagent (0.04 g/mL) at a 1:1 ratio. The absorbance was measured after 15 min at 540 nm. Cell viability was determined using the resazurin assay.
To determine TNF-α levels, cells were precultivated with the tested compounds for 24 h. After 2 h of incubation with LPS, the medium was diluted 1:10 with ELISA diluent. To determine the level of IL-6, cells were cultivated for 6 h with LPS and the tested compounds. Cytokine production was determined using an uncoated ELISA performed according to the manufacturer’s instructions.

S. aureus CCM 4223 = test: Antibacterial activity, antibiotic-sensitive strain; format: cell-based; conditions: Staphylococcus aureus, CCM4223, three repetitions ± SEM
[5] = 72 h incubation, resazurin, average of three repetitions ± SEM

| Compound | effect (mode of action with erythromycin) (MRSA 3596; MRSA 3596) | effect (mode of action with gentamicin) (MRSA 3596; MRSA 3596) | MIC, Gentamicin [1 mg/L] yes (MRSA 3596) [µM] | MIC, erythromycin [1 mg/L] yes (MRSA 3596) [µM] | MIC, erythromycin [1 mg/L] no (MRSA 3596) [µM] | FIC (Fractional Inhibitory Concentration Index) (MRSA 3596; MRSA 3596, with erythromycin) | FIC (Fractional Inhibitory Concentration Index) (MRSA 3596; MRSA 3596, with gentamicin) | MIC (MRSA 3596) [µM] | minimum inhibitory concentration (MIC) in the presence of erythromycin [1] | minimum inhibitory concentration (MIC) in the presence of gentamicin [1] | IC50 [2, 5] [µM] | IC50 [3, 5] [µM] | IC50 [4] [µM] | IC50 (S. aureus CCM 4223) [µM] | IC50 [2] [µM] | IC50 [3] [µM] | ability to inhibit IL-6 production compared to luteolin, in words ([4]; LPS-stimulated macrophages) |
| --- | --- | --- | --- | --- | --- | --- | --- | --- | --- | --- | --- | --- | --- | --- | --- | --- | --- |
| COc1ccc(Nc2c(O)cc(O)c3c(=O)cc(-c4ccc(O)c(O)c4)oc23)cc1 [compound 12, 2-(3,4-Dihydroxyphenyl)-8-(4-methoxyanilino)-5,7-dihydroxy-4H–1-benzopyran-4-one] | synergy (Fractional Inhibitory Concentration Index (FIC) < 0.5 indicates synergism) | synergy (Fractional Inhibitory Concentration Index (FIC) < 0.5 indicates synergism) | 31.4 ± 1.0 (≈ 12.8 µg/mL) | 20.0 ± 0.6 (≈ 8.15 µg/mL) | 53.6 ± 0.5 (≈ 21.8 µg/mL) | 0.37 ± 0.01 | 0.34 ± 0.01 | 91 ± 0.9 (≈ 37.1 µg/mL) | 76.3 µM and 76.3 ± 1.9 µM | 44.0 ± 1.6 µM | 59.3 ± 6.3 | 35.5 ± 1.5 | 15.3 ± 0.5 | 54 ± 0.1 | – | – | – |
| O=c1cc(-c2ccc(O)c(O)c2)oc2c(Nc3ccc(F)cc3)c(O)cc(O)c12 [compound 11, 2-(3,4-Dihydroxyphenyl)-8-(4-fluoroanilino)-5,7-dihydroxy-4H–1-benzopyran-4-one] | – | – | > 200 | 28.0 ± 0.5 (≈ 11.1 µg/mL) | 32.9 ± 0.6 (≈ 13 µg/mL) | 0.85 ± 0.03 | – | > 200 | >25 ^note 4 μM | 7.9 µM and 7.9 ± 0.5 µM | – | – | 7.2 ± 0.3 | 42 ± 1.2 | 76.9 ± 7.7 | 51.9 ± 3.7 | same ability to inhibit IL-6 production as luteolin |
